Structures can show the parent of a compound that is named as a salt. Where two headings read alike, the source gives them in different places.
Target: T1, MerTK (Homo sapiens, UniProt Q12866)
T1 construct: endogenous in cells; host or cells: Jurkat cells
T1 sequence (Q12866 21-999): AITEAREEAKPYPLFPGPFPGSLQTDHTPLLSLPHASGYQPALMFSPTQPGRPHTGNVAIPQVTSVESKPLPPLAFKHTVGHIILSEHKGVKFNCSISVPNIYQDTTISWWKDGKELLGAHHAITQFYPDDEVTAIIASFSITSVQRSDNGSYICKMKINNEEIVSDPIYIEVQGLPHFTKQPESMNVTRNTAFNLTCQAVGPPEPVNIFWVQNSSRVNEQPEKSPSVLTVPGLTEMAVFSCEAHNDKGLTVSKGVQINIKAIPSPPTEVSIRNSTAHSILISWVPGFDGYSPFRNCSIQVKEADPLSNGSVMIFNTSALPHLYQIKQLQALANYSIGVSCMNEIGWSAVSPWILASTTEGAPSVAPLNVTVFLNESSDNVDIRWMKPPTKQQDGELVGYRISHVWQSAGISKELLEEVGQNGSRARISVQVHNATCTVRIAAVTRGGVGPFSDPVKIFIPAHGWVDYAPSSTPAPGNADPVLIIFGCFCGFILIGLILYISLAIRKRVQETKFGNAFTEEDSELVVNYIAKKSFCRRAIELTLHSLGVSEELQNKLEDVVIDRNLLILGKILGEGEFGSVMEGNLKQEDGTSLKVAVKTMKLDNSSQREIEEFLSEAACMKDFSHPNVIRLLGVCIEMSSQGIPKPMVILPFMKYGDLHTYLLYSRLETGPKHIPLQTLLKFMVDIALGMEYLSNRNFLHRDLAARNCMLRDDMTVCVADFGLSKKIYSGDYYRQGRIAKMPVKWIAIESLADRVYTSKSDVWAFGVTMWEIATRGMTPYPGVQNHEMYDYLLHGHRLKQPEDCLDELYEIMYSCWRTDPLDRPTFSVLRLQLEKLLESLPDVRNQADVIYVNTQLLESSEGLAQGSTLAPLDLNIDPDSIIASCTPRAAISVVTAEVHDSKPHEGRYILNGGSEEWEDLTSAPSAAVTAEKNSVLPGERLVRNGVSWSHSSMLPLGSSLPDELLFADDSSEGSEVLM
Test: MerTk degradation in Jurkat cells (Western blot)
Assay type: cell-based
Conditions: 0.001-1 μM, 4 hour-incubation at 37° C., read-out: Jurkat Max % MerTK Degradation
Outline: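 MerTK degradation was read by near-infrared Western blot, normalized to actin, in BCA-quantified lysates of Jurkat cells exposed to 0.001-1 μM compound for 4 h at 37 °C.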

Structure (SMILES)	Dmax (Jurkat, 4 h) [%]	Dmax [%]
CN(C)c1cccc2c(S(=O)(=O)Nc3cccc(-c4cnc(NCCOCCOCCOCCN5CCN(Cc6ccc(-c7cn([C@H]8CC[C@H](O)CC8)c8nc(NCCC(F)(F)F)ncc78)cc6)CC5)nc4N4CCC(c5ccccc5)C4C(=O)O)c3)cccc12 (stereo partly drawn) [I-169, 1-(5-[3-[5-(dimethylamino)naphthalene-1-sulfonamido]phenyl]-2-(12-[4-[(4-[7-[trans-4-hydroxycyclohexyl]-2-[(3,3,3-trifluoropropyl)amino]pyrrolo[2,3-d]pyrimidin-5-yl]phenyl)methyl]piperazin-1-yl]-4,7,10-trioxa-1-azadodecan-1-yl)pyrimidin-4-yl)-3-phenylpyrrolidine-2-carboxylic acid]	< 20	
CCCCNc1ncc2c(-c3ccc(CNCCCC(=O)N(C)CCOCCCc4ccc5c(c4)n(C)c(=O)n5[C@H]4CCC(=O)NC4=O)cc3)cn([C@H]3CC[C@H](O)CC3)c2n1 [I-67, 4-[([4-[2-(butylamino)-7-[trans-4-hydroxycyclohexy1]-7H-pyrrolo[2,3-d]pyrimidin-5-yl]phenyl]methyl)amino]-N-(2-[3-[1-(2,6-dioxopiperidin-3-y1)-3-methyl-2-oxo-2,3-dihydro-1H-1,3-benzodiazol-5-yl]propoxy]ethyl)-N-methylbutanamide; formic acid]	> 50	
CN1CCN(Cc2ccc(-c3ccc(CO[C@H]4CCC[C@@H]4NC(=O)c4cc(-c5cnn(CCCCC(=O)NCCCOCCCc6ccc7c(c6)n(C)c(=O)n7C6CCC(=O)NC6=O)c5)cnc4N)cc3)cc2)CC1 (some centres unmarked) [I-39, formic acid]		> 50
Cn1c(=O)n([C@H]2CCC(=O)NC2=O)c2ccc(CCCN3CC(N4CCN(Cc5ccc(-c6cn([C@H]7CC[C@H](O)CC7)c7nc(NCCC(F)(F)F)ncc67)cc5)CC4)C3)cc21 [I-116, 3-[3-methyl-2-oxo-5-[3-(3-[4-[(4-[7-[trans-4-hydroxycyclohexyl]-2-[(3,3,3-trifluoropropyl)amino]-7H-pyrrolo[2,3-d]pyrimidin-5-yl]phenyl)methyl]piperazin-1-yl]azetidin-1-y1)propyl]-2,3-dihydro-1H-1,3-benzodiazol-1-yl]piperidine-2,6-dione]	> 50	
Cn1c(=O)n([C@H]2CCC(=O)NC2=O)c2ccc(CCOCCN3CC(N4CCN(Cc5ccc(-c6cn([C@H]7CC[C@H](O)CC7)c7nc(NCCC(F)(F)F)ncc67)cc5)CC4)C3)cc21 [I-129, 3-(3-methyl-2-oxo-5-[2-[2-(3-[4-[(4-[7-[trans-4-hydroxycyclohexy1]-2-[(3,3,3-trifluoropropyl)amino]-7H-pyrrolo[2,3-d]pyrimidin-5-y1]phenyl)methyl]piperazin-1-yl]azetidin-1-yl)ethoxy]ethyl]-2,3-dihydro-1H-1,3-benzodiazol-1-y1)piperidine-2,6-dione; formic acid]	> 50	
CCCCNc1ncc2c(C3CCN(CCOCCOCCOCCOCCCc4ccc5c(c4)n(C)c(=O)n5[C@H]4CCC(=O)NC4=O)CC3)cn([C@H]3CC[C@H](O)CC3)c2n1 [I-97, 3-[5-(1-[4-[2-(butylamino)-7-[trans-4-hydroxycyclohexyl]-7H-pyrrolo[2,3-d]pyrimidin-5-y1]piperidin-1-y1]-3,6,9,12-tetraoxapentadecan-15-y1)-3-methyl-2-oxo-2,3-dihydro-1H-1,3-benzodiazol-1-y1]piperidine-2,6-dione; bis(formic acid)]	> 50	
C[C@H](CC(F)(F)F)Nc1ncc2c(-c3ccc(CN4CCN(C5CC(OCCc6ccc7c(c6)n(C)c(=O)n7C6CCC(=O)NC6=O)C5)CC4)cc3)cn([C@H]3CC[C@H](O)CC3)c2n1 (stereo partly drawn) [I-194, 3-[3-methyl-2-oxo-5-[2-(3-[4-[(4-[7-[trans-4-hydroxycyclohexy1]-2-[[(2R)-4,4,4-trifluorobutan-2-yl]amino]pyrrolo[2,3-d]pyrimidin-5-yl]phenyl)methyl]piperazin-1-yl]cyclobutoxy)ethyl]-1,3-benzodiazol-1-yl]piperidine-2,6-dione]	> 50	
C[C@H](c1ccc(-c2cn([C@H]3CC[C@H](O)CC3)c3nc(NCCC(F)(F)F)ncc23)cc1)N1CCN(CCCOCCCc2ccc3c(c2)n(C)c(=O)n3C2CCC(=O)NC2=O)CC1 (some centres unmarked) [I-101]	> 50	
C[C@H](CC(F)(F)F)Nc1ncc2c(-c3ccc(CN4CCN(CCCOCCCc5ccc6c(c5)n(C)c(=O)n6C5CCC(=O)NC5=O)CC4)cc3)cn([C@H]3CC[C@H](O)CC3)c2n1 (some centres unmarked) [I-111]	> 50	
Cn1c(=O)n(C2CCC(=O)NC2=O)c2ccc(CN3CCC(OCCN4CCN(Cc5ccc(-c6cn([C@H]7CC[C@H](O)CC7)c7nc(NCCC(F)(F)F)ncc67)cc5)CC4)C3)cc21 (stereo partly drawn) [I-98, 3-(3-methyl-2-oxo-5-[[3-(2-[4-[(4-[7-[trans-4-hydroxycyclohexy1]-2-[(3,3,3-trifluoropropyl)amino]-7H-pyrrolo[2,3-d]pyrimidin-5-y1]phenyl)methyl]piperazin-1-yl]ethoxy)pyrrolidin-1-y1]methyl]-2,3-dihydro-1H-1,3-benzodiazol-1-yl)piperidine-2,6-dione; formic acid]	> 50	
Cn1c(=O)n([C@H]2CCC(=O)NC2=O)c2ccc(CCCOCCOCCC3CCN(C[C@H]4CC[C@H](c5cn([C@H]6CC[C@H](O)CC6)c6nc(NCCC(F)(F)F)ncc65)CC4)CC3)cc21 [I-164, 3-[3-methyl-2-oxo-5-(3-[2-[2-(1-[[trans-4-[7-[trans-4-hydroxycyclohexyl]-2-[(3,3,3-trifluoropropyl)amino]pyrrolo[2,3-d]pyrimidin-5-yl]cyclohexyl]methyl]piperidin-4-yl)ethoxy]ethoxy]propyl)-1,3-benzodiazol-1-y1]piperidine-2,6-dione]	> 50	
Cn1c(=O)n([C@H]2CCC(=O)NC2=O)c2ccc(CCCOCCN3CC(N4CCN(Cc5ccc(-c6cn([C@H]7CC[C@H](O)CC7)c7nc(NCCC(F)(F)F)ncc67)cc5)CC4)C3)cc21 [I-91, 3-(3-methyl-2-oxo-5-[3-[2-(3-[4-[(4-[7-[trans-4-hydroxycyclohexy1]-2-[(3,3,3-trifluoropropyl)amino]-7H-pyrrolo[2,3-d]pyrimidin-5-y1]phenyl)methyl]piperazin-1-yl]azetidin-1-yl)ethoxy]propyl]-2,3-dihydro-1H-1,3-benzodiazol-1-yl)piperidine-2,6-dione; formic acid]	> 50	
CCCCNc1ncc2c(-c3ccc(CN4CCN(CCCOCCCc5ccc6c(c5)n(C)c(=O)n6[C@H]5CCC(=O)NC5=O)CC4)cc3)cn(C3CCCCC3)c2n1 [I-74, 3-[5-(3-[3-[4-([4-[2-(butylamino)-7-cyclohexyl-7H-pyrrolo[2,3-d]pyrimidin-5-yl]phenyl]methyl)piperazin-1-yl]propoxy]propyl)-3-methyl-2-oxo-2,3-dihydro-1H-1,3-benzodiazol-1-yl]piperidine-2,6-dione]	> 50	
CCCCNc1ncc2c(-c3ccc([C@H](C)N4CCN(CCCOCCCc5ccc6c(c5)n(C)c(=O)n6C5CCC(=O)NC5=O)CC4)cc3)cn([C@H]3CC[C@H](O)CC3)c2n1 (stereo partly drawn) [I-104, 3-[5-[3-(3-[4-[(1S)-1-[4-[2-(butylamino)-7-[trans-4-hydroxycyclohexyl]-7H-pyrrolo[2,3-d]pyrimidin-5-yl]phenyl]ethyl]piperazin-1-yl]propoxy)propyl]-3-methyl-2-oxo-2,3-dihydro-1H-1,3-benzodiazol-1-y1]piperidine-2,6-dione]	> 50	
CCC[C@H](C)Nc1ncc2c(n1)n([C@H]1CC[C@H](O)CC1)cc2[C@H]1CC[C@H](CN2CCN(CCCOC3CN(Cc4ccc5c(c4)n(C)c(=O)n5C4CCC(=O)NC4=O)C3)CC2)CC1 (stereo partly drawn) [I-223, 3-[3-methyl-2-oxo-5-([3-[3-(4-[[trans-4-[2-[(2S)-pentan-2-ylamino]-7-[trans-4-hydroxycyclohexyl]pyrrolo[2,3-d]pyrimidin-5-yl]cyclohexyl]methyl]piperazin-1-y1)propoxy]azetidin-1-yl]methyl)-1,3-benzodiazol-1-yl]piperidine-2,6-dione]	20 to 50	
Cc1cc(CNCc2ccc(C(=O)N3CCC(C4CCN(Cc5ccc(-c6cn([C@H]7CC[C@H](O)CC7)c7nc(NCCC(F)(F)F)ncc67)cc5)CC4)CC3)cc2)ccc1-c1ccc2nn(CC3CC3)cc2c1 [I-180, trans-4-[5-(4-[[1-(4-[[([4-[2-(Cyclopropylmethyl)indazol-5-yl]-3-methylphenyl]methyl)amino]methyl]benzoyl)-[4,4-bipiperidin]-1-yl]methyl]phenyl)-2-[(3,3,3-trifluoropropyl)amino]pyrrolo[2,3-d]pyrimidin-7-yl]cyclohexan-1-ol hydrochloride]	< 20	
N[C@H]1CCCC[C@H]1Nc1cc2nc[nH]c(=O)c2c(Nc2cccc3c2ccn3CCOCCOCCOCCOCCNc2cccc3c2C(=O)N(C2CCC(=O)NC2=O)C3=O)n1 (some centres unmarked) [I-227]	> 50	
